Tests used:
[1] = target: T1, human recombinant M2 muscarinic receptor (Homo sapiens, UniProt P08172); test: M2 muscarinic receptor inhibition assay; assay type: binding; details: read-out: Muscarinic (M2) % inh @1 μM
T1 sequence (P08172 1-466): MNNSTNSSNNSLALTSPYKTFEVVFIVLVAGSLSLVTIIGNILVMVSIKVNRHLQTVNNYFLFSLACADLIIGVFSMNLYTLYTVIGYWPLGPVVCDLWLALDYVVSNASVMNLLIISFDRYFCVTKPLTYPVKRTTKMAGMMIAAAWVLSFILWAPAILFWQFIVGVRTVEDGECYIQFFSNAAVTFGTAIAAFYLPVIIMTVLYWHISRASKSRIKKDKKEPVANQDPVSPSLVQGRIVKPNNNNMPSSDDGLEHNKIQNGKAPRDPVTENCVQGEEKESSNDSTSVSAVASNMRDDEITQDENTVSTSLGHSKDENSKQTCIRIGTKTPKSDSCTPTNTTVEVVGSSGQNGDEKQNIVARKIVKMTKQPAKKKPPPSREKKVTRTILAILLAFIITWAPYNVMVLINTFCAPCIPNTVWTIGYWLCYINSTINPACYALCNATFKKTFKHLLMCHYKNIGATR
Protocol: hEGR study and the M2 and the β2 receptor inhibition assay were performed as previously reported.
The new G-quadruplex ligands were designed in an attempt to obtain molecules with improved toxicological and on-target profiles, but maintaining the same favorable chemical and pharmacological features of the lead compound 1. With the aim of selecting the best variants, a step by step comparative analysis of their off- and on-target properties was performed. Initially the new molecules were tested for their ability to interact with and inhibit the human recombinant β2 adrenergic and M2 muscarinic receptors, and to reduce the hERG tail current in a patch clamp assay. […] Therefore, we might expect that the new ligands would impair cardiac functionality to a lesser extent than the lead molecule does.

[2] = tested on: h-Tel quadruplex DNA sequence 5'-d[AGGG(TTAGGG)3]-3'; test: SPR binding to quadruplex DNA; set-up: species or system human
Protocol: Oligonucleotides 5’-biotin-d [AG3 (T2AG3)3] quadruplex and 5’-biotin-CGA3T3C(CT)2GA3T3CG were purchased from Midland Certified Reagent Company (Midland, TX). Purification of DNA, preparation of solutions, collection of data, and analysis of results were conducted according to methods adopted in an earlier study.
This technique takes advantage of the refractive index change elicits by the binding of the drug with the h-Tel quadruplex DNA sequence 5’-d[AGGG(TTAGGG)3]-3’ or an alternating hairpin duplex sequence immobilized on a sensor chip surface.

[3] = tested on: human colon cancer cell line HT-29; test: MTT proliferation assay, HT-29; assay type: cell-based; details: 96 hours
Protocol: Normal WI-38 diploid human lung fibroblasts and the human colorectal adenocarcinoma HT29 cells were obtained from American Type Culture Collection (Manassas, VA, USA). BJ fibroblasts expressing hTERT and SV40 early region (BJ-EHLT) were obtained as previously reported. Cells were grown in Dulbecco Modified Eagle Medium (D-MEM, Invitrogen Carlsbad, CA, USA) supplemented with 10% fetal calf serum, 2 mM L-glutamin and antibiotics.
MTT (3-(4,5-Dimethylthiazol-2-yl)-2,5-diphenyltetrazolium Bromide) assay was performed in treated and untreated cells for 96 hours. Cells were incubated with MTT solution (Sigma-Aldrich), and the purple formazan crystals were dissolved in isopropanol. Optical densities (OD) at 540 nm was determined on microplate reader.
Firstly, we investigated if they were able to efficiently promote growth inhibition of tumor cells without affecting the survival of normal cells in vitro. In Table 1 we report for each compound the concentration causing 50% of growth inhibition (GI50) calculated by performing a proliferation assay in the human colon cancer cell line HT-29 or in the human ‘normal’ lung WI-38 cells. […] On the basis of results described so far, we decided to exclude from the further analysis ligand 10 for its high value of hERG inhibition (95%) (Table 1).

[4] = tested on: BJ-EHLT fibroblasts; test: γ-H2AX/TRF1 colocalization (TIFs, telomere uncapping); assay type: cell-based, human
Protocol: Cells were fixed in 2% formaldehyde and permeabilized in 0.25% Triton X100 in PBS for 5 min at room temperature. For immunolabeling, cells were incubated with primary antibody, then washed in PBS and incubated with the secondary antibodies. The following primary antibodies were used: pAb and mAb anti-TRF1(Abcam Ltd.; Cambridge UK); mAb (Upstate, Lake Placid, NY) and pAb anti-γH2AX (Abcam); mAb anti-PCNA (Sigma Chemicals, Milano, Italy). The following secondary antibody were used: TRITC conjugated Goat anti Rabbit, FITC conjugated Goat anti Mouse (Jackson ImmunoResearch Europe Ltd., Suffolk, UK). Fluorescence signals were recorded by using a Leica DMIRE2 microscope equipped with a Leica DFC 350FX camera and elaborated by a Leica FW4000 deconvolution software (Leica, Solms, Germany). This system permits to focus single planes inside the cell generating 3D highresolution images. For quantitative analysis of γH2AX positivity, 200 cells on triplicate slices were scored. For TIFs analysis, in each nucleus a single plane was analyzed and at least 50 nuclei per sample were scored.
Unfortunately, we were not able to test compounds 4, 5 and the 0,5 μM dose of 3 as they were fluorescent in both red and green channels. […] To ascertain whether γ-H2AX was phosphorylated in response to dysfunctional telomeres, double immunofluorescence experiments were processed by confocal microscopy. We observed that some of the γ-H2AX foci induced by G4-ligands colocalized with TRF1, a good marker for interphase telomeres, forming the so-called telomere dysfunction-induced foci (TIFs) (Figure 2B).
Figure 2 DNA damage activation at telomeres. BJ-EHLT fibroblasts were treated for 24 hrs with compound 1 and the indicated ligands at the doses 0.1 (light-grey bars) and 0.5 μM (dark-grey bars). Cells were processed for immunofluorescence (IF) using antibodies against γ-H2AX and TRF1 to mark DNA damage and telomeres respectively. Percentages of γ-H2AX- (A) and TIF-positive (B) treated and untreated cells are reported in the histograms. (C) Mean number of TIFs in the indicated samples. Cells with four or more γ-H2AX/TRF1 foci were scored as TIF positive. Error bars indicate the standard deviation. (D) Representative images of IF of untreated and 1, 3, 6 and 8-treated BJ-EHLT cells. Enlarged views of TIFs are reported on the right of the merged images. The images were acquired with a Leica Deconvolution microscope (magnification 100x). (E) Cells treated as in (A) were processed for IF of γ-H2AX and PCNA to mark replicating cells. Percentage of γ-H2AX+/PCNA- or γ-H2AX+/PCNA + nuclei in the indicated samples are reported in the histograms.

CC(=O)NCC#Cc1ccc2c3cccc4c3c([n+](C)c2c1)-c1ccccc1N4C [Compound 8] was tested, and the inhibition at 1 µM [1] was 99%, the “Quadruplex DNA affinity K” value [2] was 14,2 x10^6 M^−1 and the Quadruplex/duplex ratio ([2]; quadruplex vs duplex affinity) was 15,8. For the same molecule, the GI50 [3] was 750 nM, the “mean TIFs per nucleus” value ([4]; 24 hrs) was “about seven” and the “percentage of cells with more than four γ-H2AX/TRF1 colocalizations (TIF-positive)” value ([4]; 24 hrs, 0,5 μM) was ~40%.

Reference: article PMC4193996 (Journal of Experimental & Clinical Cancer Research : CR, 2014)
